Reference: patent US20110071147A1, “4-AMINO-THIENO[3,2-C]PYRIDINE-7-CARBOXYLIC ACID AMIDES” (priority 2004, published 2011)
Structures can show the parent of a compound that is named as a salt.

Key:
[1] = molecular target: T1, KDR (Homo sapiens, UniProt P35968); assay: KDR kinase HTRF assay; assay type: biochemical; conditions: recombinant EEE-tagged KDR, 0.3 mM ATP
T1 construct: EEE tag
Procedure: (§1) To determine inhibition of KDR and FGFR, kinase assays were conducted using an HTRF (Homogeneous Time Resolved Fluorescence) assay. This assay is described in A. J. Kolb et. al., Drug Discovery Today, 1998, 3(7), p 333.
Prior to kinase reaction, recombinant EEE-tagged KDR was activated in the presence of activation buffer (50 mM HEPES, pH 7.4, 1 mM DTT, 10% glycerol, 150 mM NaCl, 0.1 mM EDTA, 26 mM MgCl2, and 4 mM ATP). The enzyme was incubated at 4° C. for 1 hour.
Kinase activity assays were performed in 96-well polypropylene plates (Falcon) with a total volume of 90 μL in each well. Each well contained 1 μM KDR substrate (Biotin-EEEEYFELVAKKKK), 1 nM activated KDR, and a test compound with one of 8 assay concentrations ranging from 100 μM to […] (1:5 serial dilution). The kinase activity assay was done in the presence of 100 mM HEPES, pH 7.4, 1 mM DTT, 0.1 mM Na2VO4, 25 mM MgCl2, 50 mM NaCl (from KDR stock solution), 1% DMSO (from compound), 0.3 mM ATP (at Km concentration) and 0.02% BSA. The reaction was incubated at 37° C. for 30 minutes. To stop the KDR reaction, 72 μL of reaction mixture was transferred into a STOP plate containing 18 μL of revelation buffer (20 mM EDTA, 50 mM HEPES, pH 7.4, 0.02% BSA, 10 nM Eu-labelled anti-pY antibody (final conc. 2 nM), and 100 nM streptavidin (final conc. 20 nM)). After mixing, 35 μL of solution was transferred into duplicate wells of a 384-well black plate (Costar), and read at 615/665 nm on a Wallac Victor 5 reader.
(§2) Compound IC50 values were determined from duplicate sets of data, and calculated by using Excel and fitting data to equation Y=[(a−b)/{1+(X/c)^d]+b, where a and b are enzyme activity in the presence of no test inhibitor compound and an infinite amount of inhibitor test compound, respectively, c is the IC50 and d is the hill constant of the compound response. The IC50 value is the concentration of test compound that reduces by 50% the enzyme activity under the test conditions described.

[2] = molecular target: T2, FGFR; assay: FGFR kinase HTRF assay; assay type: biochemical; conditions: GST-tagged FGFR, 10 μM ATP
T2 construct: fused on or other part: GST tag
Procedure: as §1
FGFR activity assays were carried out as described above for the KDR activity assay with the following differences. GST-tagged FGFR enzyme was activated at room temperature for 1 hour in the following activation buffer: 100 mM HEPES, pH 7.4, 50 mM NaCl, 20 mM MgCl2, and 4 mM ATP. The kinase activity assay was performed with 1 μM substrate (Biotin-EEEEYFELV), 1.5 nM activated FGFR, and test compound in the presence of 100 mM HEPES, 1 mM DTT, 0.4 mM MgCl2, 0.4 mM MnCl2, 50 mM NaCl, 1% DMSO, 10 μM ATP (Km=8.5 μM for FGFR), 0.1 mM Na2VO4, and 0.02% BSA, in a total volume of 90 μL. The rest of the assay was performed in the same manner as KDR assay.
as §2

[3] = test system: VEGF-stimulated HUVEC; assay: VEGF-stimulated HUVEC proliferation assay (BrdU); assay type: cell-based; conditions: Homo sapiens, VEGF 20 ng per mL, BrdU ELISA, read-out: VEGF-HUVEC (IC50, BrdU labeling)
Procedure: (§3) The antiproliferative activity of test compounds of this invention in cell-based assays was evaluated by BrdU assay using the BrdU kit (Roche Biochemicals 1-647-229). Human umbilical vein endothelial cells (HUVEC, Clonetics CC-2519) were cultured in EGM-2 (Clonetics CC-3162) medium and seeded at 10000 cells per well in a volume of 200 μL of EGM-2 (Clonetics CC-3162) media in a 96-well flat bottom plates (Costar 3595) overnight. After 24 hours of growth at 37° C. with 5% CO2, the incubation media was removed slowly by aspiration and the content of each well was washed with 300 μL pre-warmed EBM-2 (Clonetics CC-3156) containing 50 μg per mL of gentamycin and 50 ng per mL of amphotercin-B (Clonetics CC-4083). […]
(§4) After 24 hour exposure to the test compounds, the cells were labeled with BrdU (Roche Biochemicals 1-647-229), by adding 20 μL per well of BrdU labeling reagent that has been diluted (1:100) in serum starvation medium. […] The plates were read at 450 nm with reference wavelength of 650 nm. The percent inhibition for each test compound was calculated by subtracting the absorbency of the blank (no cells) wells from all wells, then subtracting the division of the average absorbency of each test duplicate by the average of the controls from 1. […] The IC50 is determined from the linear regression of a plot of the logarithm of the concentration versus percent inhibition.

[4] = test system: FGF-stimulated HUVEC; assay: FGF-stimulated HUVEC proliferation assay (BrdU); assay type: cell-based; conditions: Homo sapiens, FGF 5 ng per mL, BrdU ELISA, read-out: FGF-HUVEC (IC50, BrdU labeling)
Procedure: as §3, §4

T1 sequence (P35968 20-1356): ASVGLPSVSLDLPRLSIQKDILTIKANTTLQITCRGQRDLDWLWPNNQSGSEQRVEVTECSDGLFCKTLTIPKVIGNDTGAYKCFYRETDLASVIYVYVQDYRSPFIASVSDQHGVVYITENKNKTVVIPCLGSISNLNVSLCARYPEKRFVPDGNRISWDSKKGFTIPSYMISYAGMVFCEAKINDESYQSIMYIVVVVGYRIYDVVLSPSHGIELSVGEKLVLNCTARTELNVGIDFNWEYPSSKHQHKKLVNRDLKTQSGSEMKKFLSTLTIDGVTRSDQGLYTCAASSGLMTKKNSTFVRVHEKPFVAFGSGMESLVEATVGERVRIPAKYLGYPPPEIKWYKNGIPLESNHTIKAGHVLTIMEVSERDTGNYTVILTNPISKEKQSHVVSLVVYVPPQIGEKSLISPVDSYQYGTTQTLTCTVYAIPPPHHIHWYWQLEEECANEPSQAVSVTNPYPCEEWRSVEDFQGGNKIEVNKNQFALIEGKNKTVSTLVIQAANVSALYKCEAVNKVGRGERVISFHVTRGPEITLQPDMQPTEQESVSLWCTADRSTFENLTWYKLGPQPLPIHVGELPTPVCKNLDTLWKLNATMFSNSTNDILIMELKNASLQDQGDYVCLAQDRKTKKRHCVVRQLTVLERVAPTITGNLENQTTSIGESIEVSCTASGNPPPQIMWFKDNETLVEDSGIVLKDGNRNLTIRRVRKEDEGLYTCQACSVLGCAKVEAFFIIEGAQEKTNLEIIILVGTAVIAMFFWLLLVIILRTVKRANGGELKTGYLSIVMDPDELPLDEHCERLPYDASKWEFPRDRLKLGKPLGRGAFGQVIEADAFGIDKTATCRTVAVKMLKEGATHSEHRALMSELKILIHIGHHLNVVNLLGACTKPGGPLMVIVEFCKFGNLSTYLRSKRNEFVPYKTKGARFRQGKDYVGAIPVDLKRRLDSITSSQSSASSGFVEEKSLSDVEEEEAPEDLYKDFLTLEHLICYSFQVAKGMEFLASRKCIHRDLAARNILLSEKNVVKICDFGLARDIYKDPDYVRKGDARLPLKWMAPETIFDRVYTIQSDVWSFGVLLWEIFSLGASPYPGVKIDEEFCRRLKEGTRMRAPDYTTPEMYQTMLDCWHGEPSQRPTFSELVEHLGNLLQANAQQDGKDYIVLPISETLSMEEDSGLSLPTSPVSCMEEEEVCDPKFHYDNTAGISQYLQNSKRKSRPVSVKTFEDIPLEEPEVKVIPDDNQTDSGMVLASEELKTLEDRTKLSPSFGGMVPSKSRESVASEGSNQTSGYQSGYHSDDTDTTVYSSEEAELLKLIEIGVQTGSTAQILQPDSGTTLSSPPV

SMILES	IC50 [1]	IC50 [2]	IC50 [3]	IC50 [4]
COc1ccc(OCc2csc3c(C(=O)NCCO)cnc(N)c23)c(Cl)c1 [Example 2, 4-Amino-3-(2-chloro-4-methoxy-phenoxymethyl)-thieno[3,2-c]pyridine-7-carboxylic acid (2-hydroxy-ethyl)-amide]	509 nM	–	–	–
Nc1ncc(C(=O)NCCO)c2scc(COc3ccc(Br)cc3)c12 [Example 4a, 4-Amino-3-(4-bromo-phenoxymethyl)-thieno[3,2-c]pyridine-7-carboxylic acid (2-hydroxy-ethyl)-amide]	20 nM	72.4 nM	264 nM	2760 nM
Nc1ncc(C(=O)NCCN2CCOCC2)c2scc(COc3ccc(Br)cc3)c12 [Example 13b, 4-Amino-3-(4-bromo-phenoxymethyl)-thieno[3,2-c]pyridine-7-carboxylic acid (2-morpholin-4-yl-ethyl)-amide hydrochloride salt]	58.4 nM	180 nM	204 nM	627 nM
